In patent US20250249110A1, “ANTIMICROBIAL PEPTIDE DERIVATIVE AND USE THEREOF” (SICHUAN UNIVERSITY, priority 2016, published 2025):
Where a SMILES comes first, the peptide text is derived from it. The star is where a group is joined. Succinyl(4-O-cholesteryl) = CC(C)CCC[C@@H](C)[C@H]1CC[C@H]2[C@@H]3CC=C4C[C@@H](OC(=O)CCC(=O)*)CC[C@]4(C)[C@H]3CC[C@]12C

Tests used:
NY-ESO-1+B16 tumor cells = experiment: NY-ESO-1 vaccine, preventive and therapeutic NY-ESO-1+ B16 tumor models; format: in vivo, mouse; details: both preventive and therapeutic model; NY-ESO-1 protein antigen
Procedure: The specific steps are as follows: • (1) Vaccine preparation
Incubate 20 μg of CpG and 40 μg of DP7-C at 37° C. for 15 min, add 5 μg of NY-ESO-1 protein, and replenish to a volume of 100 μl with sterile PBS. • (2) Grouping and dosage regimen
In this study, animal experiments are divided into […]: NS, CpG, DP7-C and CpG/DP7-C, 10 mice for each group, and the dosage of each mouse is as follows: • (1) NS group: 100 μl of PBS; • (2) CpG group: 5 μg of NY-ESO-1 protein+20 μg of CpG; • (3) DP7-C group: 5 μg of NY-ESO-1 protein+40 μg of DP7-C; • (4) CpG/DP7-C group: 5 μg of NY-ESO-1 protein+20 μg of CpG+40 μg DP7-C;
The total dosage of each mouse is 100 μl; if the dosage is less than 100 μl, sterile PBS may be added to reach 100 μl. • (3) Preventive immunity tumor model: perform subcutaneous immunotherapy at multiple sites on weeks 0, 2 and 4, and detect total antibody titers before inoculate tumor on week 5. Subcutaneously inoculate the tumor cells NY-ESO-1+B16: […] at the back of each mouse. After the tumor grows out, measure it at intervals of 3 days. Calculation formula of tumor volume: 0.52×length×width^2. Therapeutic immune tumor model: subcutaneously inoculate 2×10^5 of NY-ESO-1^+B16 tumor cells at the back of each mouse on day 0, and immunize on day 5 (once a week, for 3 consecutive times). Measure at intervals of 3 days and observe the survival time after the tumor grows out.

red blood cells = experiment: Hemolysis test in vitro; format: cell-based, human (healthy volunteers)
Procedure: In the hemolysis test, DP7 and DP7-C at the same concentration were detected for the hemolysis of red blood cells. • 1. Take the blood of healthy volunteers and put into an anticoagulant tube and gently mix. • 2. Take out the anticoagulant, add isometric physiological saline, mix slowly and evenly, centrifuge at 400×g for 10 min, and discard the supernatant. • 3. Slowly mix the red blood cells and wash with PBS, centrifuge at 400×g for 10 min, discard the supernatant, and wash the cell precipitate with PBS for three times. • 4. Dilute with PBS to obtain 20% (v/v) red blood cell solution, which can be used immediately or stored at 4° C. for about 2 weeks (without hemolysis). • 5. Dilute the drug into a series of concentration gradients with PBS, add 100 μL of drug into a 96-well plate, take 100 μL of 2% Twain 20 as the positive control, add 100 μL of PBS to the negative control. Repeat the process 3 times for each concentration of drug. • 6. Dilute 20% (v/v) of red blood cell solution with PBS according to the volume ratio of 1:20, mix evenly and add to a 96-well plate, with the drug concentration of 100, 200, 400, 600, 800, 1000, 1200, 1600 μg/mL respectively, and incubate at 37° C. for 1 h. • 7. Incubate the mixture of drugs and red blood cells, centrifuge at 900×g for 10 min, add 160 μL of the supernatant to a new 96-well plate, and read the absorbance value at OD 450 nm. • 8. According to the absorbance value of A450, calculate the percentage of hemolysis corresponding to each concentration of drugs.
The calculation formula of the percentage of hemolysis is: […]

[1] = tested on: 293T human embryonic kidney cell line; format: cell-based; details: 293T cells, 24 h, CCK-8
Procedure: Cytotoxicity of cations is one of the important factors that restrict the application of siRNA transfection. The toxicity of DP7-C micelles to 293T human embryonic kidney cell line, a normal cell, is detected through cell survival experiments. 293T cells are laid in a 96-well plate at a density of 3×10^3 cells per well, and 100 μL of DMEM/20% FBS medium is added to each well and incubated for 24 h. In the experiment, three groups are set up, i.e. DP7-C, PEI25K and Lipofectamin2000; and each group had 10 concentration gradients of 0, 12.5, 18.75, 25, 37, 50, 75, 100, 150 and 200 μg/mL respectively. The survival of the cells was detected by the CCK-8 method. After 24 h of dosing, 10 μL of CCK-8 solution is added to each well and incubated at 37° C. for 2 h. The absorption value of each well is detected at the wavelength of 630 nm and 450 nm by a microplate reader. The standard curve is drawn and IC50 is calculated, and the average value of 6 groups of parallel experiments is taken as the final result.

[2] = tested on: C26 mouse colon cancer peritoneal metastasis; experiment: C26 mouse colon cancer peritoneal metastasis model; format: in vivo
Procedure: In order to further characterize the application potential of DP7-C micelles in tumor therapy, we established a C26 mouse colon cancer peritoneal metastasis model and used DP7-C to transmit anti-VEGF siRNA therapeutic genes for therapeutic research. • (1) Establishment of abdominal metastasis model: on day 0, female BALB/c mice aged 6-8 weeks are intraperitoneally injected with 0.1 ml of cell suspension (containing about 1×10^5 C26 cells). • (2) On day 3, mice are randomly divided into 4 groups, 8 mice for each group, and are labeled. • (3) Four groups of mice are intraperitoneally injected with 10 doses of normal saline (blank control group), blank DP7-C micelle (17.5 μg), DP7-C/no-sense control siRNA (Scramble siRNA) complex (17.5 μg/3.5 μg) or DP7-C/VEGF siRNA complex (17.5 μg/3.5 μg) respectively. • (4) On day 20, when the mice in the control group are already very weak, all the mice are killed by cervical dislocation; the tumor tissues in the abdominal cavity as well as the heart, liver, spleen, lung and kidney tissues are immediately collected, weighed and analyzed. The ascites of each group of mice is also collected and measured, and CD31 immunohistochemical staining is performed on tumor tissues of each experimental group. The collected heart, liver, spleen, lung and kidney tissues are analyzed by HE staining.

[3] = intraperitoneal injection, 10 doses, day 20

## CC[C@H](C)[C@H](NC(=O)[C@H](CCCNC(=N)N)NC(=O)[C@H](Cc1c[nH]c2ccccc12)NC(=O)[C@H](CCC(N)=O)NC(=O)[C@@H](NC(=O)CCC(=O)O[C@H]1CC[C@@]2(C)C(=CC[C@H]3[C@@H]4CC[C@H]([C@H](C)CCCC(C)C)[C@@]4(C)CC[C@@H]32)C1)C(C)C)C(=O)N[C@@H](CCCNC(=N)N)C(=O)N[C@H](C(=O)N[C@@H](C)C(=O)N[C@H](C(=O)N[C@H](C(=O)N[C@@H](CCCNC(=N)N)C(=O)N[C@@H](CCCCN)C(N)=O)[C@@H](C)CC)C(C)C)C(C)C [DP7-C, Chol-suc-VQWRIRVAVIRK-NH2] ({Succinyl(4-O-cholesteryl)}-VQWRIRVAVIRK-NH2)
NY-ESO-1+B16 tumor cells
  tumor growth: inhibit tumor growth to some extent
Red blood cells; FIG. 5B
  appearance of hemolysis test: red blood cells are not lysed
Red blood cells; drug concentration more than 0.8 mg/mL, 37° C. 1 h
  degree of lysis to red blood cells: much less than DP7
[1]
  IC50: exceeding 200 μg/mL
[2]; heart, liver, spleen, lung, kidney
  HE staining of major organ tissues: no significant pathological changes
[2]; [3]
  average tumor weight: 7.94 ± 0.53 g
  volume of ascites (printed as average tumor weight): 1.17 ± 0.51 mL
